# Source: patent US20100209345A1, “Fluorinated Ligands for Targeting Peripheral Benzodiazepine Receptors” (Australian Nuclear Science & Technology Organisation, priority 2006, published 2010)
# “Also recorded” adds a separate entry of the source.
# Columns and labels:
# [1] = Biodistribution of 18F-labelled tracers in rats; format: in vivo
# How it was run: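 Sprague-Dawley rats received 18F tracer, and brain and peripheral tissues were analysed at 15 and 30 min and 1 and 4 h post-injection. For specificity, rats were pretreated 5 min beforehand with PK11195 or Ro 5-4864 (PBR) or flumazenil (CBR), each at 1 mg/kg.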
# [2] = biological target: T1, peripheral benzodiazepine receptors (Rattus norvegicus, UniProt P16257); experiment: In vivo blocking / competition of tracer uptake by pre-treatment with PBR and CBR ligands; settings: rats; for Tracer uptake after pre-treatment with PK 11195 / Tracer uptake after pre-treatment with Ro 5-4864: PBR-expressing tissues (brain/peripheral organs, adrenals apart); for Tracer uptake after pre-treatment with flumazenil (central benzodiazepine ligand): flumazenil 1 mg/kg 5 min prior to tracer, brain or peripheral organs
# T1 construct: high uptake in the tissues which have known PBR sites; from tissue; host or cells: organs of living SD rats (brain and peripheral tissues), in vivo
# How it was run: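 SD rats received PBR ligands PK11195 or Ro 5-4864, or the CBR ligand flumazenil, at 1 mg/kg 5 min before tracer injection. Brain and peripheral tissue uptake analysed at 15, 30 min, 1 and 4 h p.i.; significance set at p<0.05 and p<0.01 versus normals or controls.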
# [3] = SD rats, 15 min, decay correction not stated
# [4] = SD rats, 4 hours, decay correction not stated
# [5] = rats, 15 min, corrected for decay of 18F
# [6] = rats, 15 min, not corrected for decay of 18F
# [7] = rats, 30 min, corrected for decay of 18F
# [8] = rats, 30 min, not corrected for decay of 18F
# [9] = rats, 60 min (1 hour), not corrected for decay of 18F
# [10] = rats, 60 min, corrected for decay of 18F
# [11] = rats, 4 hours, corrected for decay of 18F
# [12] = rats, 4 hours, not corrected for decay of 18F
structure (smiles),measurement,setting,value
"CCN(CC)C(=O)Cc1c(-c2ccc(OCCCF)cc2)nc2ccc(Cl)cn12 [PBR111, 2-(2-(4-(3-fluoropropoxy)phenyl)-6-chloroimidazo[1,2-a]pyridin-3-yl)-N,N-diethylacetamide]",Biodistribution: Blood,[1]; [3],0.4 % ID/g
same,Biodistribution: Bone,[1]; [3],0.87 % ID/g
same,Biodistribution: Kidney,[1]; [3],3.2 % ID/g
same,Biodistribution: Olfactory bulbs,[1]; [3],0.64 % ID/g
same,Biodistribution: Adrenals,"[1]; SD rats, 30 min, decay correction not stated",6.5 % ID/g
same,Biodistribution: Adrenals,[1]; [4],16 % ID/g
same,Biodistribution: Blood,[1]; [4],0.1 % ID/g
same,Biodistribution: Bone,[1]; [4],4.3 % ID/g
same,Biodistribution: Kidney,[1]; [4],2.3 % ID/g
same,Biodistribution: Olfactory bulbs,[1]; [4],0.41 % ID/g
same,Biodistribution: Bone,[1]; [5],0.87 ± 0.12 % ID/g
same,Biodistribution: Heart,[1]; [5],6.76 ± 0.82 % ID/g
same,Biodistribution: Lungs,[1]; [5],14.39 ± 2.19 % ID/g
same,Biodistribution: Skin,[1]; [5],0.34 ± 0.03 % ID/g
same,Biodistribution: Adrenals,[1]; [6],8.36 ± 2.02 % ID/g
same,Biodistribution: Bladder,[1]; [6],0.67 ± 0.36 % ID/g
same,Biodistribution: Blood,[1]; [6],0.48 ± 0.11 % ID/g
same,Biodistribution: Bone,[1]; [6],0.99 ± 0.18 % ID/g
same,Biodistribution: Brain,[1]; [6],0.31 ± 0.06 % ID/g
same,Biodistribution: GIT,[1]; [6],1.21 ± 0.11 % ID/g
same,Biodistribution: Heart,[1]; [6],7.75 ± 1.08 % ID/g
same,Biodistribution: Kidney,[1]; [6],5.18 ± 0.67 % ID/g
same,Biodistribution: Liver,[1]; [6],1.54 ± 0.20 % ID/g
same,Biodistribution: Lungs,[1]; [6],16.45 ± 2.81 % ID/g
same,Biodistribution: Muscle,[1]; [6],0.68 ± 0.16 % ID/g
same,Biodistribution: Olfactory bulbs,[1]; [6],0.74 ± 0.14 % ID/g
same,Biodistribution: Pancreas,[1]; [6],2.33 ± 0.33 % ID/g
same,Biodistribution: Skin,[1]; [6],0.39 ± 0.06 % ID/g
same,Biodistribution: Spleen,[1]; [6],8.25 ± 2.25 % ID/g
same,Biodistribution: Stomach,[1]; [6],0.95 ± 0.23 % ID/g
same,Biodistribution: Testes,[1]; [6],0.35 ± 0.05 % ID/g
same,Biodistribution: Thymus,[1]; [6],1.07 ± 0.23 % ID/g
same,Biodistribution: Thyroid,[1]; [6],11.40 ± 0.33 % ID/g
same,Biodistribution: Bone,[1]; [7],1.22 ± 0.10 % ID/g
same,Biodistribution: Heart,[1]; [7],6.63 ± 0.35 % ID/g
same,Biodistribution: Lungs,[1]; [7],8.41 ± 0.77 % ID/g
same,Biodistribution: Skin,[1]; [7],0.37 ± 0.02 % ID/g
same,Biodistribution: Adrenals,[1]; [8],9.06 ± 3.47 % ID/g
same,Biodistribution: Bladder,[1]; [8],0.76 ± 0.16 % ID/g
same,Biodistribution: Blood,[1]; [8],0.33 ± 0.11 % ID/g
same,Biodistribution: Bone,[1]; [8],1.35 ± 0.27 % ID/g
same,Biodistribution: Brain,[1]; [8],0.19 ± 0.04 % ID/g
same,Biodistribution: GIT,[1]; [8],1.38 ± 0.36 % ID/g
same,Biodistribution: Heart,[1]; [8],7.30 ± 0.90 % ID/g
same,Biodistribution: Kidney,[1]; [8],4.77 ± 1.05 % ID/g
same,Biodistribution: Liver,[1]; [8],0.94 ± 0.28 % ID/g
same,Biodistribution: Lungs,[1]; [8],9.27 ± 1.60 % ID/g
same,Biodistribution: Muscle,[1]; [8],0.62 ± 0.15 % ID/g
same,Biodistribution: Olfactory bulbs,[1]; [8],0.60 ± 0.14 % ID/g
same,Biodistribution: Pancreas,[1]; [8],1.49 ± 0.29 % ID/g
same,Biodistribution: Skin,[1]; [8],0.41 ± 0.06 % ID/g
same,Biodistribution: Spleen,[1]; [8],6.54 ± 1.35 % ID/g
same,Biodistribution: Stomach,[1]; [8],1.18 ± 0.34 % ID/g
same,Biodistribution: Testes,[1]; [8],0.38 ± 0.07 % ID/g
same,Biodistribution: Thymus,[1]; [8],1.23 ± 0.47 % ID/g
same,Biodistribution: Thyroid,[1]; [8],13.24 ± 4.62 % ID/g
same,Biodistribution: Adrenals,[1]; [9],12.11 ± 3.32 % ID/g
same,Biodistribution: Bladder,[1]; [9],1.24 ± 0.29 % ID/g
same,Biodistribution: Blood,[1]; [9],0.24 ± 0.08 % ID/g
same,Biodistribution: Bone,[1]; [9],2.41 ± 0.24 % ID/g
same,Biodistribution: Brain,[1]; [9],0.17 ± 0.04 % ID/g
same,Biodistribution: GIT,[1]; [9],1.89 ± 0.37 % ID/g
same,Biodistribution: Heart,[1]; [9],8.41 ± 1.91 % ID/g
same,Biodistribution: Kidney,[1]; [9],5.08 ± 1.23 % ID/g
same,Biodistribution: Liver,[1]; [9],0.82 ± 0.22 % ID/g
same,Biodistribution: Lungs,[1]; [9],7.29 ± 2.12 % ID/g
same,Biodistribution: Muscle,[1]; [9],0.55 ± 0.11 % ID/g
same,Biodistribution: Olfactory bulbs,[1]; [9],0.65 ± 0.14 % ID/g
same,Biodistribution: Pancreas,[1]; [9],1.24 ± 0.36 % ID/g
same,Biodistribution: Skin,[1]; [9],0.54 ± 0.07 % ID/g
same,Biodistribution: Spleen,[1]; [9],6.72 ± 1.91 % ID/g
same,Biodistribution: Stomach,[1]; [9],0.91 ± 0.06 % ID/g
same,Biodistribution: Testes,[1]; [9],0.51 ± 0.09 % ID/g
same,Biodistribution: Thymus,[1]; [9],1.39 ± 0.29 % ID/g
same,Biodistribution: Thyroid,[1]; [9],13.04 ± 3.22 % ID/g
same,Biodistribution: Bone,[1]; [10],2.04 ± 0.09 % ID/g
same,Biodistribution: Lungs,[1]; [10],5.68 ± 1.03 % ID/g
same,Biodistribution: Skin,[1]; [10],0.46 ± 0.02 % ID/g
same,Biodistribution: Bone,[1]; [11],4.32 ± 0.33 % ID/g
same,Biodistribution: Lungs,[1]; [11],3.02 ± 0.39 % ID/g
same,Biodistribution: Skin,[1]; [11],0.63 ± 0.04 % ID/g
same,Biodistribution: Adrenals,[1]; [12],17.81 ± 3.61 % ID/g
same,Biodistribution: Bladder,[1]; [12],1.33 ± 0.17 % ID/g
same,Biodistribution: Blood,[1]; [12],0.12 ± 0.02 % ID/g
same,Biodistribution: Bone,[1]; [12],4.86 ± 0.86 % ID/g
same,Biodistribution: Brain,[1]; [12],0.10 ± 0.02 % ID/g
same,Biodistribution: GIT,[1]; [12],2.01 ± 0.27 % ID/g
same,Biodistribution: Heart,[1]; [12],4.92 ± 0.66 % ID/g
same,Biodistribution: Kidney,[1]; [12],2.57 ± 0.48 % ID/g
same,Biodistribution: Liver,[1]; [12],0.44 ± 0.07 % ID/g
same,Biodistribution: Lungs,[1]; [12],3.37 ± 0.40 % ID/g
same,Biodistribution: Muscle,[1]; [12],0.19 ± 0.05 % ID/g
same,Biodistribution: Olfactory bulbs,[1]; [12],0.47 ± 0.06 % ID/g
same,Biodistribution: Pancreas,[1]; [12],0.61 ± 0.10 % ID/g
same,Biodistribution: Skin,[1]; [12],0.71 ± 0.07 % ID/g
same,Biodistribution: Spleen,[1]; [12],3.45 ± 0.43 % ID/g
same,Biodistribution: Stomach,[1]; [12],0.51 ± 0.06 % ID/g
same,Biodistribution: Testes,[1]; [12],0.67 ± 0.08 % ID/g
same,Biodistribution: Thymus,[1]; [12],1.88 ± 0.40 % ID/g
same,Biodistribution: Thyroid,[1]; [12],8.91 ± 1.19 % ID/g
same,Tracer uptake in the olfactory regions after pre-treatment with PK 11195 and Ro 5-4864,"[2]; 1 mg/kg 5 min prior to tracer, olfactory regions",non-significant decrease
same,Tracer uptake after pre-treatment with PK 11195,[2]; PK 11195 1 mg/kg 5 min prior to tracer,decreased
same,Tracer uptake after pre-treatment with PK 11195,"[2]; PK 11195 1 mg/kg 5 min prior to tracer, listed as [^18F]PBR111",reduced uptake; also recorded: blocking effect
same,Tracer uptake in the adrenals after pre-treatment with PK 11195,"[2]; PK 11195 1 mg/kg 5 min prior to tracer, adrenals",increase
same,Tracer uptake after pre-treatment with Ro 5-4864,[2]; Ro 5-4864 1 mg/kg 5 min prior to tracer,decreased
same,Tracer uptake after pre-treatment with Ro 5-4864,"[2]; Ro 5-4864 1 mg/kg 5 min prior to tracer, listed as [^18F]PBR111",reduced uptake; also recorded: blocking effect
same,Tracer uptake in the adrenals after pre-treatment with Ro 5-4864,"[2]; Ro 5-4864 1 mg/kg 5 min prior to tracer, adrenals",increase
same,Tracer uptake after pre-treatment with flumazenil (central benzodiazepine ligand),[2],no effect
same,Tracer uptake after pre-treatment with flumazenil (central benzodiazepine ligand),[2]; listed as [^18F]PBR111,does not compete; also recorded: does not reduce
same,Tracer uptake after pre-treatment with the non-radioactive analogue,"[2]; non-radioactive analogue 1 mg/kg, PBR-expressing tissues, listed as [^18F]PBR111",reduced uptake; also recorded: blocking effect
